Columns and labels:
[1] = molecular target: kinome (Wee1, PLK1); test: KINOMEscan profiling; assay type: binding; details: 1 μM
[2] = tested on: CRBN−/− MOLT4 cells; test: CellTiter-Glo cell viability, 72 hours; assay type: cell-based
[3] = tested on: BT549 and HCC1806 cells; test: Image-based cell cycle assay in TNBC cell lines; details: data not shown
Procedure: (§1) HCC1806, BT549, and Kuramochi cells were maintained in RPMI (Corning®, Corning, NY) supplemented with 10% fetal bovine serum (FBS) (Life Technologies™, Carlsbad, CA) and 1% penicillin/streptomycin (Corning, Corning®, NY). OVCAR8 cells were maintained as above with the addition of 2 mM L-glutamine (Life Technologies™, Carlsbad, CA). MCF10A cells were maintained in a 1:1 mix of DMEM:F12 supplemented with 5% horse serum (Life Technologies™ Carlsbad, CA), 1% penicillin/streptomycin (Corning®, Corning, NY), 20 ng/ml EGF (Peprotech®, Rocky Hill, NJ), 500 ng/ml hydrocortisone (Sigma-Aldrich®, St. Louis, MO), 10 μg/ml insulin (Sigma-Aldrich®, St. Louis, MO), and 100 ng/ml cholera toxin (Sigma-Aldrich®, St. Louis, MO). COV362 cells were maintained in DMEM (Corning®, Corning, NY) supplemented with 10% FBS (Life Technologies™, Carlsbad, CA), 1% penicillin/streptomycin (Corning®, Corning, NY) and 2 mM L-glutamine (Life Technologies™, Carlsbad, CA). The OCE1 cells were maintained in FOMI (Wit-Fo) (PMID: 24303006) supplemented with 25 ng/ml cholera toxin (Sigma-Aldrich®, St. Louis, MO). […]
(§2) Fixed cells were imaged with a 10× objective using an Operetta microscope and analyzed using the Columbus image data storage and analysis system (PerkinElmer®, Waltham, MA). […] The average LDR, EdU and phospho-histone H3 intensities within the nuclear masks were determined. […]

[4] = tested on: MCF10A cells; test: Image-based cell cycle assay in non-transformed mammary epithelial cells; details: data not shown
Procedure: as §1, §2

C=CCn1c(=O)c2cnc(Nc3ccc(N4CCN(CCCNc5cccc6c5C(=O)N(C5CCC(=O)NC5=O)C6=O)CC4)cc3)nc2n1-c1cccc(C(C)(C)O)n1 (stereo not drawn) [Compound 13, 4-((3-(4-(4-((2-allyl-1-(6-(2-hydroxypropan-2-yl)pyridin-2-yl)-3-oxo-2,3-dihydro-1H-pyrazolo[3,4-d]pyrimidin-6-yl)amino)phenyl)piperazin-1-yl)propyl)amino)-2-(2,6-dioxopiperidin-3-yl)isoindoline-1,3-dione]
Kinase engagement in KINOMEscan [1]: strong engagement of both Wee1 and PLK1 | Rescue of anti-proliferative activity, CRBN−/− versus WT MOLT4 cells ([2]; Example 28, FIG. 3A/3B, 72-hour): ~15 fold | Shift in cellular IC50, CRBN−/− versus parental MOLT4 cells ([2]; Example 32, FIG. 6A): approximately 6 fold | IC50 ([2]; Homo sapiens, MOLT-4, MOLT4 CRBN−/− cells, 72 hours, CellTiter-Glo, read-out: Antiproliferative IC50): 2220 nM | Changes in mitotic cell number [3]: greater changes in mitotic cell number than AZD1775 | Effect on mitotic cell number [4]: very little effect
